We go through four compounds from US20220152024A1, “COMBINATIONS USEFUL IN A METHOD FOR TREATING SARCOMA” (PTC THERAPEUTICS, INC., priority 2019, published 2022).

Series [1] in a line: Predicted effective human dose from mouse exposure and measured human exposure (FIGS. 6A-D). As to conditions: monotherapy, orally twice per week. The format is in vivo. An excerpt: FIGS. 6A-D summarize the pharmacokinetics of Compound 1 administered as a monotherapy in humans (as measured by AUCLast and Cmax) two times per week in the AST trial, wherein the dotted line in each figure indicates free drug concentration.
(§1) In contrast to use of allometric conversion factors, FIGS. 6A-D summarize the pharmacokinetics of Compound 1 administration in humans, showing that a conversion factor for Compound 1 based on free drug in humans compared to free drug in mice can be derived to estimate the effective target AUC and Cmax, thus accounting for the differences in free drug between these species.
(§2) As shown by the dashed line, this predicts that the estimated dose in a human patient of about 2.0 mg/kg (biw) or higher of Compound 1 would be effective.
As shown by the dashed line, this predicts that the estimated dose in a human patient of about 1.4 mg/kg (biw) or higher of Compound 1 would be effective.
As shown by the dashed line, this predicts that the estimated dose in a human patient of about 2.3 mg/kg (biw) or higher of Compound 1 would be effective.
As shown by the dashed line, this predicts that the estimated dose in a human patient of about 1.8 mg/kg (biw) or higher of Compound 1 would be effective.

In series [2] the test system is SK-LMS-1 human leiomyosarcoma tumors. Type of series: in vivo.
Excerpt: (§3) Leiomyosarcoma accounts for 5-10% of soft tissue sarcomas. Typically, leiomyosarcomas have a complex karyotype and are associated with p53 mutations (Yang J, Du X, Chen K, Ylipaa A, Lazar A J, Trent J, Lev D, Pollock R, Hao X, Hunt K, Zhang W. Genetic aberrations in soft tissue leiomyosarcoma. Cancer Lett. 2009 Mar. 8; 275(1):1-8). The cell line, SK-LMS-1 has a complex karyotype and a mutated p53 gene. Chemotherapy with doxorubicin-based drug regimens such as a combination of doxorubicin and ifosfamide is the standard of care. However, these regimens usually result in cardiotoxicity, rapid development of resistance, and no significant survival advantage. In a previous study utilizing the SK-LMS-1 model, Compound 1 (Cpd 1) was tested at a constant dose (12.5 mg/kg biw) in combination with varying doses/regimens of doxorubicin and gemcitabine. […] Here, SK-LMS-1 cells were passaged for a more extended time in vivo relative to the prior study generating a more aggressive tumor model. This study tested the efficacy of Cpd 1 alone and in combination with the chemotherapeutic agents Doxil and DTIC in the treatment of mice bearing SK-LMS-1 human leiomyosarcoma tumors.
(§4) A negative coefficient indicates greater inhibition in the combination group than expected based on the activity of the monotherapies. The more negative the coefficient, the greater the activity of the combination.
Tumors were ˜222 mm3 in volume when dosing was initiated. […] Interaction coefficients were determined using the AUCs of the Day 0 to Day 28 tumor volume vs day curves. To take into account the data after Day 28, interaction coefficients were calculated for the median time to reach 1000 mm^3. A negative interaction coefficient indicates synergy.
as §4

In series [3] the test system is SK-UT-1 leiomyosarcoma tumor cells. The format is in vivo. As for the experimental part:
as §4
This study utilized SK-UT-1 leiomyosarcoma tumor cells implanted into the flank of athymic nude mice.
To compare tumor growth, the area under the curve comparing tumor volume vs day for each individual mouse was calculated and then averaged for each group.
Interaction coefficients were determined using the AUCs of the Day 0 to Day 25 tumor volume vs day curves. To take into account the data after Day 25, interaction coefficients were also calculated for the median time to reach 1000 mm3. A negative interaction coefficient indicates synergy.

The subject of series [4] is advanced solid tumor (AST) cancers. Briefly: Phase 1a clinical trial NCT02404480, safety, PK and response. As to conditions: 31 evaluable patients; Compound 1 alone. The format is in vivo, human. As to the method: (§5) FIG. 5 summarizes the duration of Compound 1 treatment alone in an […] (AST) Phase 1a clinical trial (NCT02404480) of 31 evaluable patients to determine safety and pharmacokinetics. The initial human dose of 0.65 mg/kg was based on a rat model MTD of 40 mg/kg, with subsequent higher human dose ranging at 1.3 mg/kg, 2.6 mg/kg, 5.2 mg/kg, 7 mg/kg, and 10 mg/kg. The Standard 3+3 trial design, with 3 patients per cohort, allowed dose escalation for each cohort absent a dose-limiting toxicity (DLT), enabling the next cohort to be treated at the next higher dose. In the event any one patient in the cohort experienced a DLT at a particular dose, the next cohort would be treated at the same dose. A full pharmacokinetic review of each patient was taken on Day 1 and Day 29, with a partial review taken on Day 15.
(§6) NCT02404480: Phase 1 Study, open-label, first-in-human, evaluated safety and pharmacokinetic (PK) profile for use of Compound 1 in patients with advanced solid tumor (AST) cancers, determined the RP2D (recommended phase II clinical trial dose) according to escalating dose levels.
(§7) Compound 1 was administered as a […] in NCT02404480, a Phase 1a clinical trial designed to evaluate safety and PK profile for use of Compound 1 in patients with advanced solid tumor (AST) cancers.

Test in series [5]: as above
The format is in vivo, human. As to conditions: human, in vivo, 2.6 mg/kg, NCT02404480 PK profile, FIG. 6. As for the experimental part:
as §5, §6, §7

A short description of another series: Rat model MTD. As to conditions: in vivo.
Series [6] is described as follows: Exposure (AUC, Cmax) of Compound 1 in the mouse, free and total drug. As to conditions: in vivo, po. As for the experimental part:
as §1, §2

Another series concerns SK-LMS-1 model. Briefly: Previous study in the SK-LMS-1 model (doxorubicin, gemcitabine combinations). Type of series: in vivo. As to conditions: Cpd 1 12.5 mg/kg biw with varying doses/regimens of doxorubicin and gemcitabine.
Excerpt: as §3

Setting [7] is: DTIC 4 mg/kg IP tiw, alone or with Cpd 1 12.5 mg/kg PO biw.
The mark [8] stands for this setting: DTIC 21 mg/kg IP qd5, alone or with Cpd 1 12.5 mg/kg PO biw.
Where [9] appears, read: docetaxel 15 mg/kg IP QW6, alone or with Cpd 1 12.5 mg/kg.
[10] abbreviates: docetaxel 15 mg/kg IP qw6, alone or with Cpd 1 12.5 mg/kg biw6.

Entries after “also recorded” stand apart in the source; their conditions may differ. Read-outs that look alike come from different tables or passages of the source. Marks after values point to notes of the source that are not given here.

`Cc1nc2ccc(F)cc2n1-c1nc(N)c(F)c(Nc2ccc(C(F)(F)F)cc2)n1` [Compound 1, 5-fluoro-2-(6-fluoro-2-methyl-1H-benzo[d]imidazol-1-yl)-N^4-[4-(trifluoromethyl)phenyl]pyrimidine-4,6-diamine]: the “minimum effective amount for a 70 kg human subject, for Cmax” value is recorded as “about 124 mg” in series [1] (targeting free drug at 12.5 mg/kg in the mouse) and “about 226 mg” in series [1] (targeting total drug at 12.5 mg/kg in the mouse). Also, the “median time for tumor volume for individual mice to reach 1000 mm^3” value was 23 days in series [2] (Cpd 1 12.5 mg/kg PO biw alone) and 31.2 days in series [3] (Cpd 1 12.5 mg/kg PO biw6 alone). For the same compound, the “percent reduction in tumor volume at Day 28 (%)” value (shortened to “percent reduction … (%)”) was 21% in series [2] (Cpd 1 12.5 mg/kg PO biw alone) and 35.4* % in series [3] (Cpd 1 12.5 mg/kg PO biw6 alone). In addition, the “mean tumor volume on Day 32” value in series [2] (Cpd 1 12.5 mg/kg biw alone, all mice euthanized) came to 1607 mm^3. Moreover, the “mean tumor volume on Day 28” value in series [2] (Cpd 1 12.5 mg/kg biw alone, ~222 mm3 at start of dosing) is 1388 mm3. Besides, the “inhibition vs vehicle at Day 25” value in series [3] (Cpd 1 12.5 mg/kg BIW6 alone) is given as 35%. In series [3] (Cpd 1 12.5 mg/kg BIW6 alone, vs vehicle), the “delay of the median time for tumor growth to reach 1000 mm^3” value was roughly 1.7 fold. Besides, in series [3] (Cpd 1 12.5 mg/kg alone, all mice euthanized), the “mean tumor volume on Day 42” value is 1508 mm^3. Further, the “mean tumor volume on Day 25” value in series [3] (Cpd 1 12.5 mg/kg alone, ~163 mm^3 at start of dosing) is given as 983 mm^3. Besides, the “patients with a mixed/partial response” value in series [4] is 2/31. The “patients with stable disease” value in series [4] is given as 5/31. Besides, the AUC(0-t) in series [5] (read-out: target AUCLast) was determined as 13100 ng·h/mL. The Cmax in series [5] (read-out: target Cmax) was 679 ng/mL; in series [6] (Dose in Mouse 10 mg/kg) it was 1100 ng/mL; in series [6] (Dose in Mouse 12.5 mg/kg), 1380 ng/mL. For the same compound, the MTD in “Rat model MTD” came out at 40 mg/kg. Moreover, the AUC in series [6] (Dose in Mouse 10 mg/kg) stood at 21000 ng·h/mL; in series [6] (Dose in Mouse 12.5 mg/kg), 26200 ng·h/mL.

In the case of `CN(C)/N=N/c1[nH]cnc1C(N)=O` [DTIC, dacarbazine, reference compound], in series [2] (setting [7]), the “median time for tumor volume for individual mice to reach 1000 mm^3” value is 19 days and the “percent reduction … (%)” value is 0%. The “effect on tumor growth” value in series [2] (DTIC 4 mg/kg IP tiw, alone or with Cpd 1 12.5 mg/kg biw) was “no activity”. In series [2] (setting [8]), the “median time for tumor volume for individual mice to reach 1000 mm^3” value is 35 days and the “percent reduction … (%)” value is listed as 74* %.

`COc1cccc2c1C(=O)c1c(O)c3c(c(O)c1C2=O)C[C@@](O)(C(=O)CO)C[C@@H]3O[C@H]1C[C@H](N)[C@H](O)[C@H](C)O1` [Doxorubicin, doxorubicin]: in the series with SK-LMS-1 model, the “efficacy” value is on record as “not active as a monotherapy or in combination with Cpd 1”.

As to `CC(=O)O[C@@]12CO[C@@H]1C[C@H](O)[C@@]1(C)C(=O)[C@H](O)C3=C(C)[C@@H](OC(=O)[C@H](O)[C@@H](NC(=O)OC(C)(C)C)c4ccccc4)C[C@@](O)([C@@H](OC(=O)c4ccccc4)[C@H]21)C3(C)C` [docetaxel], the “effect on tumor growth” value in series [3] (docetaxel 5 mg/kg IP BIW5.5, alone or with Cpd 1) is on record as “no efficacy as a monotherapy”; in series [3] (docetaxel 15 mg/kg IP QW6, alone or with Cpd 1), “tumor growth was delayed; also recorded: more effective than Cpd 1”. In addition, the “percent reduction … (%)” value in series [3] (docetaxel 5 mg/kg IP biw5.5 (11 doses), alone or with Cpd 1 12.5 mg/kg biw6) is 2.27%; in series [3] (setting [10]), 77.8* %. Besides, in series [3] (docetaxel 5 mg/kg IP biw5.5, alone or with Cpd 1 12.5 mg/kg biw6), the “median time for tumor volume for individual mice to reach 1000 mm^3” value was 18.9 days. Further, the “inhibition vs vehicle at Day 25” value in series [3] (setting [9]) is reported as 78%. The “mean tumor size at Day 25” value in series [3] (setting [9]) was found to be 1486 mm^3. The “median time for tumor volume for individual mice to reach 1000 mm^3 (Days)” value in series [3] (setting [10]) is on record as 50.1* Days.

By Cmax is commonly meant the maximum level reached in the sampled fluid or tissue. For orientation: AUC means the area under the concentration-time curve, a measure of exposure.
